In one assay the target is T1, activated human C1 (Homo sapiens, UniProt P09871).
T1 construct: C1r and C1s cleaved to two-chain proteases
Kind of assay: Test Code 026 (C1 inhibitor). Type of assay: biochemical. The following applies: serial dilution assay, twofold dilutions; higher well number indicates higher activity. The text has this:
(§1) An active inhibitor protects C2 from C1 and C4; (ii) Test Code 035 (C3-C9 inhibitor): This test determines the ability of the late components of human complement (C3-C9) to lyse EAC 142 in the presence of appropriate dilutions of the test compound. An active inhibitor protects EAC 142 from lysis by human C3-C9; (iii) Test Code 036 (C-Shunt inhibitor): In this test human erythrocytes rendered fragile are lysed in autologous serum via the shunt pathway activated by cobra venom factor in the presence of appropriate dilutions of the test compound. Inhibition of the shunt pathway results in failure of lysis; (iv) Forssman Vasculitis Test: Here, the well known complement dependent lesion, Forssman vasculitis, is produced in guinea pigs by intradermal injection of rabbit anti-Forssman antiserum. […] Percent inhibition is calculated by comparison with simultaneous controls. […]

Assay [1] concerns late components of human complement (C3-C9). Kind of assay: Test Code 035 (C3-C9 inhibitor), lysis of EAC 142. Type of assay: biochemical. The following applies: serial dilution assay, twofold dilutions; higher well number indicates higher activity.
Description: as §1

For assay [2], the system named is shunt pathway activated by cobra venom factor. Kind of assay: Test Code 036 (C-Shunt inhibitor), lysis of human erythrocytes in autologous serum. Type of assay: biochemical. The note with it: serial dilution assay, twofold dilutions; higher well number indicates higher activity.
Description: as §1

Assay [3] relates to complement activity of sera. Briefly: Guinea Pig Intraperitoneal Test (GPIP). Type of assay: in vivo. The following applies: Cavia porcellus, ip, 200 mg./kg. i.p. An excerpt: An active inhibitor protects C2 from C1 and C4; (ii) Test Code 035 (C3-C9 inhibitor): This test determines the ability of the late components of human complement (C3-C9) to lyse EAC 142 in the presence of appropriate dilutions of the test compound. An active inhibitor protects EAC 142 from lysis by human C3-C9; (iii) Test Code 036 (C-Shunt inhibitor): In this test human erythrocytes rendered fragile are lysed in autologous serum via the shunt pathway activated by cobra venom factor in the presence of appropriate dilutions of the test compound. Inhibition of the shunt pathway results in failure of lysis; (iv) Forssman Vasculitis Test: Here, the well known complement dependent lesion, Forssman vasculitis, is produced in guinea pigs by intradermal injection of rabbit anti-Forssman antiserum. The lesion is measured in terms of diameter, edema and hemorrhage and the extent to which a combined index of these is inhibited by prior intraperitoneal injection of the test compound at 200 mg./kg. is then reported, unless otherwise stated; (v) Forssman Shock Test: Lethal shock is produced in guinea pigs by an i.v. injection of anti-Forssman antiserum and the harmonic mean death time of treated guinea pigs is compared with that of simultaneous controls; (vi) Complement Level Reduction Test: In this test, the above dosed guinea pigs, or others, are bled for serum and the complement level is determined in undiluted serum by the capillary tube method of U.S. Pat. No. 3,876,376 and compared to undosed control guinea pigs; (vii) Cap 50 Test: Here, appropriate amounts of the test compound are added to a pool of guinea pig serum in vitro, after which the undiluted serum capillary tube assay referred to above is run. The concentration of compound inhibiting 50% is reported; (viii) Guinea Pig Intraperitoneal Test (GPIP): Guinea pigs weighing about 300 g. are dosed intraperitoneally (i.p.) with 200 mg./kg. of the test compound dissolved in saline and adjusted to pH 7-8. Approximately 0.4 ml. blood samples, taken by orbital sinus puncture 30 minutes and one hour after injections, are collected directly into centrifuge tubes; 5 ml. blood samples, taken by decapitation 2 hours after injection are collected directly into diSPo® beakers. The samples were allowed to clot, centrifuged, and the resultant sera are assayed for complement activity using the capillary complement assay. Percent inhibition is calculated by comparison with simultaneous controls. The results appear in Table I together with results of Test Code 026, 035, 036, Cap 50 and % Inhibition.

[4] abbreviates: 0.5 h, serum 30 minutes after injection, read-out: In Vivo Activity (Guinea Pig) % Inhibition Intraperitoneal, 30 minutes.
[5] abbreviates: 1 h, serum 60 minutes after injection, read-out: In Vivo Activity (Guinea Pig) % Inhibition Intraperitoneal, 60 minutes.
[6] abbreviates: 2 h, serum 120 minutes after injection, read-out: In Vivo Activity (Guinea Pig) % Inhibition Intraperitoneal, 120 minutes.

The values that follow come from patent US4266077A, “Naphthalenetetrayltetrakis(sulfonylimino)-aryl multicarboxylic acids and salts thereof” (priority 1979, dated 1981).

Read-outs that look alike come from different tables or passages of the source.

T1 sequence (P09871 16-688): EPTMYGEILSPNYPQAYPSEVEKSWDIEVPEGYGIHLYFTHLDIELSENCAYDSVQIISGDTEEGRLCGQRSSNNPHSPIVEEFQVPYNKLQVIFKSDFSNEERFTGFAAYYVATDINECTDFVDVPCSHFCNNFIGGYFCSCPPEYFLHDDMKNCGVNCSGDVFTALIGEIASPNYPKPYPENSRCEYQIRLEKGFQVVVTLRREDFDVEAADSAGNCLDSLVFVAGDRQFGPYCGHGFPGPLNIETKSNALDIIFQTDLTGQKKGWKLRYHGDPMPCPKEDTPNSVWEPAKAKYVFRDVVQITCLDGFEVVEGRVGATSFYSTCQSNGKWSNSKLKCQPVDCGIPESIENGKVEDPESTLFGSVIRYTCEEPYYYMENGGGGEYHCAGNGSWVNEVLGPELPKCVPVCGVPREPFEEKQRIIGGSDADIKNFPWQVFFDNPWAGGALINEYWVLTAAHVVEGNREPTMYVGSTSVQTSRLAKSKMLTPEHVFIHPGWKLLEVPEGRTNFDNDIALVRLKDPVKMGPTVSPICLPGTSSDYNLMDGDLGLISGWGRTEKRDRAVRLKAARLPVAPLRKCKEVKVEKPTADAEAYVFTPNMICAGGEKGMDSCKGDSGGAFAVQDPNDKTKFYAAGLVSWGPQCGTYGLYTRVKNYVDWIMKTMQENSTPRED
T1 sequence (P00736 18-705 partner): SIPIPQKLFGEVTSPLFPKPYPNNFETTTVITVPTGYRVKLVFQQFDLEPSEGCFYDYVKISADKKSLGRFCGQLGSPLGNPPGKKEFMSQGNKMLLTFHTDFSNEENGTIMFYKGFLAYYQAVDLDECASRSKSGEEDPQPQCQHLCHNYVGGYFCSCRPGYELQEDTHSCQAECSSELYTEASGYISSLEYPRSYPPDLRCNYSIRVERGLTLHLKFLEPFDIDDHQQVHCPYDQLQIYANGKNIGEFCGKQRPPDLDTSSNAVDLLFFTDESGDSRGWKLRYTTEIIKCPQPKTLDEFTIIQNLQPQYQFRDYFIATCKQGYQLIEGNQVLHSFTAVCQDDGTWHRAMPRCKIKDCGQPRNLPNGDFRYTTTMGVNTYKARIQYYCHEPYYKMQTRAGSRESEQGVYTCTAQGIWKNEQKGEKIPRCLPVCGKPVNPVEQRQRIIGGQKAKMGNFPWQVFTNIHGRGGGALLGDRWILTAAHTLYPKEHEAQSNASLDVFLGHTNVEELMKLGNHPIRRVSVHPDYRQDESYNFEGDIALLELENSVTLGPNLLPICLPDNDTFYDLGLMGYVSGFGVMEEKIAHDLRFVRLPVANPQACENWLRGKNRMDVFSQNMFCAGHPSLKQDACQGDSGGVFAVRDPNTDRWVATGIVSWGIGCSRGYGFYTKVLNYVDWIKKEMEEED
T1 sequence (P02745 23-245 partner): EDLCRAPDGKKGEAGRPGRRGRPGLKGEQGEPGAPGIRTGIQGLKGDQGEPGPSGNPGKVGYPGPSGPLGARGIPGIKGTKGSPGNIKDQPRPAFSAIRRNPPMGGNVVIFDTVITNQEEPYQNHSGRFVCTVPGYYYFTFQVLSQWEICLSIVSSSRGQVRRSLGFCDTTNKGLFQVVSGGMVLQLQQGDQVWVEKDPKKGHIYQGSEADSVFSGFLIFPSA
T1 sequence (P02746 28-253 partner): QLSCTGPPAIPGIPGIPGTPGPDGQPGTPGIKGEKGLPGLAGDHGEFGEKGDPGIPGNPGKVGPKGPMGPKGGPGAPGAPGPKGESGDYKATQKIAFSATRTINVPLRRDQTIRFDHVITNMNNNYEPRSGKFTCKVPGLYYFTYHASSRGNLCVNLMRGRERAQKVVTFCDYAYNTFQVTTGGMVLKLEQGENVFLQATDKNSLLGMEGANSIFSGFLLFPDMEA
T1 sequence (P02747 29-245 partner): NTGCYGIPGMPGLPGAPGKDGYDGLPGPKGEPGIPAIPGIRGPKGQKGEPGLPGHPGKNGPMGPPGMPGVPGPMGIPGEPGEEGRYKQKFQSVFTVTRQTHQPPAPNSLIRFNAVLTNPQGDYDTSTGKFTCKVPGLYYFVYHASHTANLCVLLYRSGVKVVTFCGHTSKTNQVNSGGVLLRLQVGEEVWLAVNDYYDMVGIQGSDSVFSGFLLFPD

In the case of `O=C([O-])c1cc(NS(=O)(=O)c2cc(S(=O)(=O)Nc3cc(C(=O)[O-])c(C(=O)[O-])c(C(=O)[O-])c3)c3cc(S(=O)(=O)Nc4cc(C(=O)[O-])c(C(=O)[O-])c(C(=O)[O-])c4)cc(S(=O)(=O)Nc4cc(C(=O)[O-])c(C(=O)[O-])c(C(=O)[O-])c4)c3c2)cc(C(=O)[O-])c1C(=O)[O-].[Na+].[Na+].[Na+].[Na+].[Na+].[Na+].[Na+].[Na+].[Na+].[Na+].[Na+].[Na+]` [5,5',5",5'"-[1,3,5,7-Naphthalenetetrayltetrakis[sulfonylimino)]-tetra-1,2,3-benzenetricarboxylic acid, dodecasodium salt], the “Cl 026 Wells” value at activated human C1 is reported as “+2 Wells”. In addition, the “C-Late 035 Wells” value in assay [1] is on record as “+4 Wells”. For the same molecule, the “Shunt Inhibition 036 Wells” value in assay [2] is on record as “+6 Wells”. In addition, the results for the inhibition at 200 mg/kg in assay [3] (setting [4]), in assay [3] (setting [5]) and in assay [3] (setting [6]) were -80%, -77% and -85%, respectively.

Regarding `O=C([O-])c1cc(NS(=O)(=O)c2cc(S(=O)(=O)Nc3cc(C(=O)[O-])cc(C(=O)[O-])c3)c3cc(S(=O)(=O)Nc4cc(C(=O)[O-])cc(C(=O)[O-])c4)cc(S(=O)(=O)Nc4cc(C(=O)[O-])cc(C(=O)[O-])c4)c3c2)cc(C(=O)[O-])c1.[Na+].[Na+].[Na+].[Na+].[Na+].[Na+].[Na+].[Na+]` [5,5',5",5'"-[1,3,5,7-Naphthalenetetrayltetrakis(sulfonylimino)]-tetra-1,3-benzenedicarboxylic acid, octasodium salt], on activated human C1, the “Cl 026 Wells” value is reported as “+7 Wells”. Besides, the “C-Late 035 Wells” value in assay [1] is on record as “+2 Wells”. Further, the “Shunt Inhibition 036 Wells” value in assay [2] is recorded as “+6 Wells”. The inhibition (in general, the change of the read-out against control, counted positive when it falls) at 200 mg/kg in assay [3] (setting [4]) was -66%; in assay [3] (setting [5]), -71%; in assay [3] (setting [6]) it was -76%.
